Measurements: patent US9579329B2, “Use of estetrol as emergency contraceptive” (Estetra S.P.R.L., priority 2011, dated 2017)
Read-outs that look alike come from different tables or passages of the source.

Assays:
[1] = test system: ovulation in four-day cyclic rats; assay: Anti-ovulatory effect in four-day cyclic rats, oral twice daily for four days, ova per oviduct counted; assay type: in vivo, rat; settings: for ED50: Rattus norvegicus, po, 96 h, four-day cyclic rats; for rats with ovulation inhibited: Days 1-4, 8 rats per group
Procedure: Vaginal smears from female rats were obtained daily for two weeks prior to the start of treatment to identify four-day cycling rats. All treatments were administered orally twice daily at approximately 6:30 am and 4:30 pm for four consecutive days (Days 1-4), starting on the day of estrus. One day after the final dose (Day 5), the rats were euthanized by CO2 asphyxiation at approximately 1 pm, and the number of ova per oviduct was counted by visualization under a dissecting microscope and recorded. In one study, animals (8 per group) were treated with E4 (0.03; 0.1; 0.3; 1.0 or 3.0 mg/kg) or ethinylestradiol (EE) (0.0003; 0.001; 0.003, 0.01 or 0.03 mg/kg). The control group was given the vehicle only. In another study, the antiovulatory activity of E4 was evaluated relative to that of estradiol (E2). Animals (8 per group) were treated with E4, E2 or vehicle (control group).

plasma LH levels = assay: Pharmacodynamics: plasma LH levels after a single oral dose in postmenopausal women; assay type: in vivo, human
Procedure: (§1) In the present example the safety, tolerability, pharmacokinetics and pharmacodynamics of a single escalating dose of E4 (0.1, 1, 10 and 100 mg) was evaluated in healthy postmenopausal women.
(§2) A double-blind, randomized, placebo-controlled, single rising dose study (0.1, 1, 10 and 100 mg of E4) was performed in healthy postmenopausal women. 32 healthy postmenopausal female volunteers between 53 and 69 years of age were enrolled. Menopause was defined as ≧12 months amenorrhea or 6 months amenorrhea with serum FSH levels≧40 IU/l and serum E2<73 pmol/l. […] A total of 8 subjects were assigned to each dose group; six subjects received active treatment and two subjects received placebo.
The maximum mean suppression was 48% at 4 hours after dosing. A second LH trough of 45% is seen at 12 hours after dosing, synchronous with the mean E4 levels.

[2] = test system: adult female cynomolgus monkeys; assay: Maximum tolerated dose (MTD) study in adult female cynomolgus monkeys; assay type: in vivo
Procedure: A maximum tolerated dose (MTD) study was performed in adult female cynomolgus monkeys.
Three control animals were treated orally with vehicle, and four other animals were treated orally with E4 as a suspension in vehicle at single increasing doses of 1, 10, 100 or 1000 mg/kg on days 1, 3, 6 and 14 respectively.

[3] = Pharmacokinetics of a single oral dose in healthy postmenopausal women; assay type: in vivo, human; settings: for half-life: female, human, plasma, po, postmenopausal women
Procedure: as §1, §2
Plasma concentration profiles could not be determined in subjects of the 0.1 mg group.

FSH levels = assay: Pharmacodynamics: FSH levels after a single oral dose in postmenopausal women; assay type: in vivo, human; settings: 100 mg dose group
Procedure: as §1, §2

[4] = test system: ovulation and pregnancy in fertile female rabbits; assay: Prevention of pregnancy in rabbits, twice daily dosing for 14 days starting four days before mating; assay type: in vivo, rabbit
Procedure: Eighteen proven fertile female rabbits, 3 per group were dosed twice daily at approximately 12 hour intervals for 14 days starting four days before mating: Group 1: vehicle control (ASV: 0.9% sodium chloride, 0.4% polysorbate 80, 0.5% carboxymethylcellulose and 0.9% benzyl alcohol in distilled or deionised water, 1 ml/kg), Group 2: 0.01 mg/kg E4 in ASV, 1 ml/kg, Group 3: 0.03 mg/kg E4 in ASV, 1 ml/kg, Group 4: 0.1 mg/kg E4 in ASV, 1 ml/kg, Group 5: 0.3 mg/kg E4 in ASV, 1 ml/kg and Group 6: 1.0 mg/kg E4 in ASV, 1 ml/kg. Doses were determined by body weights taken the first day of dosing and were adjusted according to weights obtained one week later. Each female rabbit was bred with two proven fertile male rabbits after four days of dosing. The females were necropsied ten days later and the number of pregnancies were determined.

[5] = test system: healthy postmenopausal women; assay: Safety and tolerability of a single rising oral dose in healthy postmenopausal women; assay type: in vivo, human; settings: for safety and tolerability after single administration: dose up to 100 mg, humans
Procedure: as §1, §2

[6] = test system: estrogen-sensitive parameters related to hepatic and bone metabolism; assay: Pharmacodynamics: estrogen-sensitive hepatic and bone metabolism parameters and endometrial stimulation in postmenopausal women; assay type: in vivo, human; settings: single oral dose
Procedure: as §1, §2
Some fast reacting, estrogen-sensitive parameters related to hepatic and bone metabolism were determined in the 100-mg dose group only. […] Interpretation of the pharmacodynamic data must be made with care taking into consideration the small number of subjects and the single dose administration.

mated female Wistar rats = assay: Effects of E4 on the pregnancy of the Wistar rat, oral gavage Day 6 to 17 of gestation; assay type: in vivo; settings: for females observed to be hunched towards the end of gestation: seven rats per group
Procedure: In one study, groups of seven mated female rats were given E4 orally, by gavage, at dose levels of 30, 60 or 90 mg/kg/day from Day 6 to 17 of gestation inclusive. A similar group of seven rats was given the vehicle, 0.5% w/v carboxymethylcellulose, over the same period to act as controls. On Day 20 of gestation, the females were examined.
In another study, using the same protocol as the study above, groups of seven mated female rats were given E4 at dose levels of 0.1, 0.3, 1, 3 and 10 mg/kg/day or vehicle (controls).

[7] = another study, E4 vs E2, p.o., read-out: antiovulatory ED50
[8] = single increasing oral doses 1-1000 mg/kg
[9] = 0.01 mg/kg twice daily, one female failed to breed
[10] = 0.03 mg/kg twice daily, 3 animals per group
[11] = 1.0 mg/kg twice daily, 3 animals per group
[12] = 30, 60 or 90 mg/kg/day oral gavage, Day 6 to 17 of gestation
[13] = all dose groups 30, 60, 90 mg/kg/day

C[C@]12CC[C@@H]3c4ccc(O)cc4CC[C@H]3[C@@H]1CC[C@@H]2O [E2, estradiol, reference compound]
ED50 [1, 7]: 0.03 to 0.1 mg/kg

C[C@]12CC[C@@H]3c4ccc(O)cc4CC[C@H]3[C@@H]1[C@@H](O)[C@@H](O)[C@@H]2O [E4, 1,3,5(10)-estratrien-3, 15α, 16α, 17β-tetrol]
maximum mean suppression of LH (plasma LH levels; 4 hours after dosing, 100 mg group shown in FIG. 2): 48%
second LH trough (plasma LH levels; 12 hours after dosing, 100 mg group shown in FIG. 2): 45%
inhibition of plasma LH levels (plasma LH levels; up to 48 hours after dosing): clear dose-dependent inhibition
rats with ovulation inhibited ([1]; 0.03 mg/kg p.o. twice daily): did not inhibit ovulation
rats with ovulation inhibited ([1]; 0.1 mg/kg p.o. twice daily): 2 of 8
rats with ovulation inhibited ([1]; 0.3 mg/kg p.o. twice daily): 5 of 8
rats with ovulation inhibited ([1]; 1.0 mg/kg p.o. twice daily): 7 of 8
rats with ovulation inhibited ([1]; 3.0 mg/kg p.o. twice daily): 8 of 8
ED50 [1, 7]: 0.204 mg/kg
animals with decreased levels of inorganic phosphorus ([2]; 1 mg/kg, the day after dosing): 3 of 4
adverse clinical sign ([2]; 1000 mg/kg oral, approximately 12 h after dosing): emesis in one E4-treated animal
animals with decreased levels of inorganic phosphorus ([2]; after the 100 mg/kg dose): all E4-treated animals
animals with decreased levels of inorganic phosphorus ([2]; after the 1000 mg/kg dose): all E4-treated animals
tolerability of single oral treatment ([2]; doses up to 1000 mg/kg): well tolerated
effects on body weight or haematological parameters [2, 8]: No effects
gross necropsy [2, 8]: did not reveal any unusual findings
liver parameters (AST, ALT) [2, 8]: no apparent test item- or dose-related findings
oral bioabsorption ([3]; dose range tested): high and dose-proportional
half-life ([3]; single oral dose, read-out: terminal half life (converted)): 1680 min
half-life ([3]; single oral dose, read-out: terminal half life, ranges): 1080 to 3600 min
Cmax dose proportionality ([3]; range from 1 to 100 mg oral): proportional
AUC0-∞ dose proportionality ([3]; range from 10 to 100 mg oral): proportional to the oral dose
absorption ([3]; single oral dose): extremely fast
terminal half life and fractional clearance, effect of dose level ([3]; single oral dose): not affected by dose level
inter-subject variability of pharmacokinetic data ([3]; single oral dose, 1-100 mg): very low
maximum suppression of FSH (FSH levels; 48 hrs after dosing): 41%
inhibition of FSH levels (FSH levels; up to 168 hours (1 week) after dosing): profound and sustained inhibition
dosages that caused complete prevention of pregnancy [4]: > 0.03 mg/kg b.i.d.
N corpora lutea, total number [4, 9]: 22
N pregnancies, total number [4, 9]: 22
N corpora lutea, total number [4, 10]: 22
N pregnancies, total number [4, 10]: 21
N corpora lutea, total number ([4]; 0.1 mg/kg twice daily, 3 animals per group): 20
N corpora lutea, total number ([4]; 0.3 mg/kg twice daily, 3 animals per group): 20
N corpora lutea, total number [4, 11]: 3
N pregnancies, total number [4, 11]: 0
oral doses that induce inhibition of ovulation ([4]; oral): > 0.3 mg/kg b.i.d.
Somnolence, E = number of adverse events ([5]; 0.1 mg single oral dose, N = 6): 1
Somnolence, n = number of subjects with adverse events ([5]; 0.1 mg single oral dose, N = 6): 1
Somnolence, percentage of subjects with adverse events ([5]; 0.1 mg single oral dose, N = 6): 16.7%
Somnolence, E = number of adverse events ([5]; 1 mg single oral dose, N = 6): 1
Somnolence, n = number of subjects with adverse events ([5]; 1 mg single oral dose, N = 6): 1
Somnolence, percentage of subjects with adverse events ([5]; 1 mg single oral dose, N = 6): 16.7%
number of AEs ([5]; 10 mg group): just one AE
Myalgia, E = number of adverse events ([5]; 10 mg single oral dose, N = 6): 1
Myalgia, n = number of subjects with adverse events ([5]; 10 mg single oral dose, N = 6): 1
Myalgia, percentage of subjects with adverse events ([5]; 10 mg single oral dose, N = 6): 16.7%
number and nature of AEs versus placebo ([5]; 0.1, 1.0 and 10 mg): similar
number of AEs (all AEs and related AEs) ([5]; 100 mg): highest
Diarrhoea NOS, E = number of adverse events ([5]; 100 mg single oral dose, N = 6): 2
Diarrhoea NOS, n = number of subjects with adverse events ([5]; 100 mg single oral dose, N = 6): 2
Diarrhoea NOS, percentage of subjects with adverse events ([5]; 100 mg single oral dose, N = 6): 33.3%
Myalgia, E = number of adverse events ([5]; 100 mg single oral dose, N = 6): 2
Myalgia, n = number of subjects with adverse events ([5]; 100 mg single oral dose, N = 6): 2
Myalgia, percentage of subjects with adverse events ([5]; 100 mg single oral dose, N = 6): 33.3%
Somnolence, E = number of adverse events ([5]; 100 mg single oral dose, N = 6): 2
Somnolence, n = number of subjects with adverse events ([5]; 100 mg single oral dose, N = 6): 2
Somnolence, percentage of subjects with adverse events ([5]; 100 mg single oral dose, N = 6): 33.3%
safety and tolerability after single administration [5]: In conclusion, the results of this study showed that E4 after single administration at a dose up to 100 mg is safe and well tolerated.
safety and tolerability after single administration ([5]; listed as estetrol): safe and well tolerated
notable adverse event ([5]; one subject of the 100 mg group, not serious, mild, probably related): allergic reaction (urticaria)
severe or serious adverse events ([5]; single doses 0.1, 1, 10 and 100 mg): No severe or serious adverse events
changes in ECGs, laboratory tests or vital signs ([5]; single doses 0.1-100 mg): no notable changes
endometrial stimulation (withdrawal bleeding after progestogen post treatment) [6]: No significant endometrial stimulation
females observed to be hunched towards the end of gestation (mated female Wistar rats; 3 mg/kg/day): one female
mean body weight during treatment period (mated female Wistar rats; 10 mg/kg/day): overall loss in mean body weight
mean food intake (mated female Wistar rats; 10 mg/kg/day): reduced mean food intake
females observed to be hunched towards the end of gestation (mated female Wistar rats; 10 mg/kg/day): Three females
mean body weight gains over treatment period (mated female Wistar rats; 0.1, 0.3, 1 and 3 mg/kg/day): less than the controls
mean gravid uterus weight (mated female Wistar rats; 0.3, 1 and 3 mg/kg/day): reduction in mean gravid uterus weight
mean food intake over treatment period (mated female Wistar rats; 1 and 3 mg/kg/day): slightly lower than the control
clinical observations or necropsy findings related to treatment (mated female Wistar rats; [12]): no relevant unexpected clinical observations or necropsy findings
deaths (mated female Wistar rats; [12]): no deaths
group mean body weight over treatment period (mated female Wistar rats; [13]): Group mean body weight loss
mean food intake over treatment period (mated female Wistar rats; [13]): marked reduction in mean food intake
deaths (mated female Wistar rats; another study, 0.1, 0.3, 1, 3 and 10 mg/kg/day): no deaths
maternal toxicity (mated female Wistar rats; dose level below 3 mg/kg/day): only slight maternal toxicity

C#C[C@]1(O)CC[C@H]2[C@@H]3CCc4cc(O)ccc4[C@H]3CC[C@@]21C [EE, ethinylestradiol, reference compound]
ED50 ([1]; study E4 vs EE, p.o. twice daily, read-out: calculated antiovulatory ED50): 0.01 mg/kg
